Data on one compound can be found in US20240016784A1, “Y BOX BINDING PROTEIN 1 INHIBITORS” (Oregon Health & Science University, priority 2020, published 2024).

Series [1] concerns OVCAR8, SKOV3, and ID8 cells. The experiment in a line: Cell cycle analysis (propidium iodide, flow cytometry). It counts as cell-based. How it is done:
To determine whether proliferation inhibition was the dominant factor driving the reduction in OC viability seen with AzP treatment, we used propidium iodide and annexin-FITC stains with flow cytometry to measure the distribution of cell cycle phases after treatment. […] Furthermore, in the Boyden chamber assay for cell migration, SU093 inhibited cell migration by 40-46% (1 μM, P<0.05) in different OC cell lines.
Cell cycle analysis: 30,000 OC cells were plated in each well of 12 well plates and incubated for 24 h. […] Both live and dead cells were collected via trypsinization and cell pellets were fixed with 70% ethanol. Fixed cells were stained using propidium iodide (PI) cocktail (80 μg/mL RNase A and 50 μg/mL PI in saponin-EDTA solution) and incubated at 4° C. overnight. Each sample was analyzed using a Guava® easyCyte™ Flow Cytometer (Millipore, Burlington, MA). FlowJo software calculated the % cells in each cell cycle phase.
FIG. 1A) Lead optimization of SU093 to obtain SU056. FIG. 1B) IC50 values of SU093 and SU056 on various ovarian cancer cells. Clonogenic survival of OC cells treated with SU093 or SU056. […] FIG. 1C) Representative colony formation from respective wells. FIG. 1D) Number of colonies formed after SU093 and SU056 treatment. […] FIG. 1F) Cell cycle distribution of propidium iodide (PI)-stained OVCAR8, SKOV3, and ID8 cells. […] FIG. 1G) Effects of SU093 and SU056 on apoptotic cell death analyzed by Annexin-FITC staining. […] FIG. 1H) Cell migration assay.

Series [2] can be described thus: Liver toxicity parameters (ALT, AST, ALKP) in ID8 study. It counts as in vivo, C57BL/6 mice. As to conditions: 20 mg/kg daily IP, 42 days. How it is done:
(§1) These promising results led us to test SU093 and SU056 in vivo. C57BL/6 mice were implanted with 2×10^6 firefly luciferase (luc+)-expressing ID-8 syngeneic ovarian cancer cells subcutaneously. Once the tumors reached 100 mm^3 in size, we began daily intraperitoneal treatment with SU093 and SU056 at 20 mg/kg (vehicle control 30% PEG-300 in saline). Tumor growth was monitored via bioluminescence imaging (IVIS).
In vivo xenograft model and drug efficacy study: All animal experiments were reviewed and approved by the Animal Care and Use Committee of Stanford University, CA, USA. Luciferase tagged ID8 (2×10^6) or OVCAR8 (5×10^6) cells were implanted into the right flank of 6-7-week-old female C57BL/6 mice and NOD/SCID mice, respectively. Respective treatment began after tumors grew to 100-200 mm^3 diameters. The ID8 syngeneic mice model was treated with a vehicle (30% PEG-300 in saline), 20 mg/kg SU093, and 20 mg/kg SU056 intraperitoneally (IP) daily for 42 days. At the end of treatment, blood was collected from each mouse and analyzed for liver toxicity parameters, including Alanine Aminotransferase (ALT), Aspartate Aminotransferase (AST), and Alkaline Phosphatase (ALKP). […]

The subject of the next series is ID-8 tumor xenograft. The experiment in a line: ID8 syngeneic ovarian tumor model, tumor growth and lung metastasis. It counts as in vivo, C57BL/6 mice. How it is done:
as §1
Due to prior observation of a significant reduction in the migratory ability of OC cells treated with the two drugs (FIG. 1H), we also measured the effect of drug treatment on ovarian cancer metastases. At the end of above experiment, lungs were fixed and metastatic foci were counted under the dissecting microscope followed by H&E staining.
In vivo xenograft model and drug efficacy study: All animal experiments were reviewed and approved by the Animal Care and Use Committee of Stanford University, CA, USA. Luciferase tagged ID8 (2×10^6) or OVCAR8 (5×10^6) cells were implanted into the right flank of 6-7-week-old female C57BL/6 mice and NOD/SCID mice, respectively. Respective treatment began after tumors grew to 100-200 mm^3 diameters. The ID8 syngeneic mice model was treated with a vehicle (30% PEG-300 in saline), 20 mg/kg SU093, and 20 mg/kg SU056 intraperitoneally (IP) daily for 42 days. At the end of treatment, blood was collected from each mouse and analyzed for liver toxicity parameters, including Alanine Aminotransferase (ALT), Aspartate Aminotransferase (AST), and Alkaline Phosphatase (ALKP). OVCAR8 xenograft mice model was treated with vehicle (30% PEG-300 in saline), 5 mg/kg paclitaxel (once a week), 10 mg/kg SU056 (daily), a combination of paclitaxel (5 mg/kg, once a week) and SU056 (10 mg/kg, daily) for 4 weeks. Mice from both studies were euthanized, the tumor and different organs were collected and fixed in neutral buffered formalin and further processed for immunohistochemical analysis.
FIGS. 2A-2F. SU093 and SU056 inhibit mice ovarian ID-8 tumor xenograft growth in C57BL/6 mice. Mice were subcutaneously injected with ID-8 cells mixed with Matrigel in 1:1 ratio and the drug treatment started when tumors reached 100 mm^3. […] FIG. 2B) Tumor volume/mouse as a function of time. […] FIG. 2C) Tumor weight/mouse at the end of the study. […] FIG. 2D) Liver toxicity parameters at the end of 42 days showing no significant difference between control, SU093, and SU056. FIGS. 2E-2F) Lung metastasis assay. FIG. 2E) H&E staining of the lung (red arrow indicates the metastasis from ID8 xenograft). Scale bar, 250 μm. FIG. 2F) No. of lung metastatic nodules.

The test system of series [3] is efflux of paclitaxel in OC cells. In words: Paclitaxel efflux assay. The note with it: SU056 co-treatment vs only paclitaxel-treated cells. The class given is cell-based. The text has this:
YB-1 is involved in the emergence of cisplatin and taxane drug resistance (Kang et al., 2013, Mo et al., 2016). Therefore, we tested whether SU056 synergizes with chemotherapies such as paclitaxel to modulate YB-1. To measure this, we performed a dose dependent combination study of SU056 and paclitaxel. […] ABCB1/MDR1 drug efflux pumps are also known to play an important downstream role with YB-1 in increased taxol efflux and subsequent TR in cancer. To evaluate whether SU056 affects drug efflux, we used Alexa Fluor-488-tagged paclitaxel to measure taxol efflux in vitro. […] Efflux is primarily driven by the ATP-binding cassette transporters (ABC pumps) present on the cell surface (Genovese et al., 2017). We examined the expression of MDR1 and YB-1 in OVCAR8 cells treated with vehicle, SU056, and paclitaxel combinations via Western blot.
Paclitaxel efflux assay: OC cells were treated with 5 nM Oregon Green™ 488-conjugated paclitaxel (Molecular Probes, #P22310) for 1 h. Cells were washed and incubated in phenol red-free DMEM media supplemented with 10% FBS. After each respective time point (30, 60, 120, 180 minutes), the media was collected and centrifuged to remove floating cells. The fluorescence intensity of efflux paclitaxel in media was read at Ex 496 and Em 524 using a multimode plate reader.
Combination index values for paclitaxel and SU056. […] FIG. 7C) Immunoblotting of YB-1 and MDR1. […]

Turning to `O=C1OCC2=C1C(c1cccc(F)c1)c1cc3c(cc1N2CCO)OCO3` (stereo not shown) [SU056, 9-(3-fluorophenyl)-5-(2-hydroxyethyl)-6,9-dihydro-[1,3]dioxolo[4,5-g]furo[3,4-b]quinolin-8(5H)-one], the cell cycle distribution entry in series [1] (12 h treatment, PI-stained OVCAR8, SKOV3, ID8) is “G1 phase arrest”. Moreover, the “cell cycle arrest, comparison of SU056 with SU093” value in series [1] (OC lines) was “greater cell cycle arrest than SU093”. For the same compound, in series [2], the “impact on blood chemistry indicators (AST, ALT, alkaline phosphatase)” value is “no significant impact”. Moreover, the “reduction in lung metastases” value in the series with ID-8 tumor xenograft (20 mg/kg daily IP, 42 days, histological scoring) was determined as 3 fold. In addition, the “reduction in tumor weight” value in the series on ID-8 tumor xenograft (20 mg/kg daily IP, at 42 days) amounted to 2 fold. In the series on ID-8 tumor xenograft (20 mg/kg daily intraperitoneal, bioluminescence imaging), the “tumor progression vs vehicle control” value was “significantly delay the tumor progression”. Besides, the “efflux of Alexa Fluor-488-tagged paclitaxel” value in series [3] was “significantly inhibits the efflux of paclitaxel”.
